The assay deals with BDF1 mice, P388 leukemia ip, median survival T/C. The assay can be described thus: NCI In Vivo Anticancer Drug Screen. Data for tumor model P388 Leukemia (intraperitoneal) in B6D2F1 (BDF1) mice. Particulars: endpoint: median survival time, higher = longer survival. In a few lines:
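Steps: implant the tumour, treat one group with compound and another with vehicle, record survival, then divide treated by control.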

Setting [1] is: dose: 50.0 mg/kg/injection, schedule: Q04DX003 (ip), vehicle: saline with Tween-80.
[2] abbreviates: dose: 100.0 mg/kg/injection, schedule: Q04DX003 (ip), vehicle: water.
[3] abbreviates: dose: 200.0 mg/kg/injection, schedule: Q04DX003 (ip), vehicle: water.
[4] abbreviates: dose: 100.0 mg/kg/injection, schedule: Q04DX003 (ip), vehicle: Klucel (hydroxypropylcellulose) (HPC).
[5] abbreviates: dose: 200.0 mg/kg/injection, schedule: Q04DX003 (ip), vehicle: Klucel (hydroxypropylcellulose) (HPC).
The mark [6] stands for this setting: dose: 100.0 mg/kg/injection, schedule: Q01DX009 (ip), vehicle: saline with Tween-80.
The mark [7] stands for this setting: dose: 100.0 mg/kg/injection, schedule: Q04DX003 (ip), vehicle: saline with Tween-80.
Where [8] appears, read: dose: 200.0 mg/kg/injection, schedule: Q01DX009 (ip), vehicle: saline with Tween-80.
Setting [9] is: dose: 200.0 mg/kg/injection, schedule: Q04DX003 (ip), vehicle: saline with Tween-80.
[10] abbreviates: dose: 400.0 mg/kg/injection, schedule: Q01DX009 (ip), vehicle: saline with Tween-80.
The mark [11] stands for this setting: dose: 100.0 mg/kg/injection, schedule: Q01DX009 (ip), vehicle: water.
[12] abbreviates: dose: 200.0 mg/kg/injection, schedule: Q01DX009 (ip), vehicle: water.
The mark [13] stands for this setting: dose: 400.0 mg/kg/injection, schedule: Q01DX009 (ip), vehicle: water.
The mark [14] stands for this setting: dose: 50.0 mg/kg/injection, schedule: Q01DX009 (ip), vehicle: saline with Tween-80.

Inconclusive results and toxic doses are left out.

Consider `OCCN1CCN(CC/C=C2\c3ccccc3Sc3ccc(Cl)cc32)CC1`, for which the T/C reads like this: (dose: 6.25 mg/kg/injection, schedule: Q01DX009 (ip), vehicle: saline) 114 % of control; (dose: 12.5 mg/kg/injection, schedule: Q01DX009 (ip), vehicle: saline) 114 % of control.
As for `S=P(NCCNP(=S)(N1CC1)N1CC1)(N1CC1)N1CC1`, the T/C is 121 % of control (dose: 33.0 mg/kg/injection, schedule: Q04DX003 (ip), vehicle: saline with Tween-80); 256 % of control under setting [1]; 121 % of control (dose: 75.0 mg/kg/injection, schedule: Q04DX003 (ip), vehicle: saline with Tween-80).
As to `Cc1cnccc1Br`, the T/C by setting is: (dose: 12.5 mg/kg/injection, schedule: Q04DX003 (ip), vehicle: water) 103 % of control; (dose: 25.0 mg/kg/injection, schedule: Q04DX003 (ip), vehicle: water) 103 % of control; (dose: 50.0 mg/kg/injection, schedule: Q04DX003 (ip), vehicle: water) 103 % of control; under setting [2], 97 % of control; under setting [3], 94 % of control.
For `c1ccc(SCC2c3ccccc3Nc3ccccc32)cc1`, the T/C is, setting by setting: (dose: 100.0 mg/kg/injection, schedule: Q01DX001 (ip), vehicle: saline with Tween-80) 109 % of control; (dose: 200.0 mg/kg/injection, schedule: Q01DX001 (ip), vehicle: saline with Tween-80) 114 % of control; (dose: 400.0 mg/kg/injection, schedule: Q01DX001 (ip), vehicle: saline with Tween-80) 109 % of control.
For `O=C(NC1CCCCC1)OCC#CC#CCOC(=O)NC1CCCCC1`, the T/C by setting is: under setting [4], 95 % of control; under setting [5], 100 % of control.
Take `CC1OC(Oc2c(-c3ccc(O)c(O)c3)oc3cc(O)cc(O)c3c2=O)C(O)C(O)C1O` (stereo not given): the T/C was 109 % of control under setting [6]; 113 % of control under setting [7]; 104 % of control under setting [8]; 109 % of control under setting [9]; 104 % of control (dose: 264.0 mg/kg/injection, schedule: Q04DX003 (ip), vehicle: saline with Tween-80); 118 % of control under setting [10]. The T/C is 104 % of control (dose: 400.0 mg/kg/injection, schedule: Q04DX003 (ip), vehicle: saline with Tween-80) and 104 % of control (dose: 600.0 mg/kg/injection, schedule: Q04DX003 (ip), vehicle: saline with Tween-80).
Take `O=[N+]([O-])C1(CO)COC(c2ccccc2)OC1` (stereo not given): the T/C is 109 % of control under setting [11]; 95 % of control under setting [2]; 86 % of control under setting [12]; 100 % of control under setting [3]; 90 % of control under setting [13]; 104 % of control (dose: 400.0 mg/kg/injection, schedule: Q04DX003 (ip), vehicle: water).
Regarding `Cc1cc(Cc2cc(C)c(C)c(C)c2C)c(C)c(C)c1C`, the T/C is 93 % of control (dose: 12.5 mg/kg/injection, schedule: Q01DX009 (ip), vehicle: saline with Tween-80); 100 % of control (dose: 25.0 mg/kg/injection, schedule: Q01DX009 (ip), vehicle: saline with Tween-80); 98 % of control under setting [14]; 97 % of control under setting [6].
For `COC(=O)c1ccccc1NC(=O)CCl`, the T/C under setting [1] was 100 % of control and the T/C under setting [7] was 87 % of control.
On to `O=C1CSC(c2ccccc2)N1` (stereo not given), for which the T/C is 103 % of control (dose: 100.0 mg/kg/injection, schedule: Q01DX009 (ip), vehicle: Klucel (hydroxypropylcellulose) (HPC)); 100 % of control under setting [4]; 103 % of control (dose: 200.0 mg/kg/injection, schedule: Q01DX009 (ip), vehicle: Klucel (hydroxypropylcellulose) (HPC)); 96 % of control (dose: 400.0 mg/kg/injection, schedule: Q01DX009 (ip), vehicle: Klucel (hydroxypropylcellulose) (HPC)); 96 % of control (dose: 400.0 mg/kg/injection, schedule: Q04DX003 (ip), vehicle: Klucel (hydroxypropylcellulose) (HPC)).
On to `O=C(Nc1cc(C(F)(F)F)cc(C(F)(F)F)c1)Nc1c(Oc2ccc(Cl)cc2Cl)ccc(Cl)c1S(=O)(=O)O`, for which the T/C was 87 % of control (dose: 50.0 mg/kg/injection, schedule: Q04DX003 (ip), vehicle: saline sonified) and 87 % of control (dose: 100.0 mg/kg/injection, schedule: Q04DX003 (ip), vehicle: saline sonified).
For `CC(=O)/C=N/Nc1ccccc1`, the T/C is 109 % of control (dose: 50.0 mg/kg/injection, schedule: Q04DX003 (ip), vehicle: Klucel (hydroxypropylcellulose) (HPC)); 110 % of control (dose: 66.0 mg/kg/injection, schedule: Q04DX003 (ip), vehicle: Klucel (hydroxypropylcellulose) (HPC)); 120 % of control under setting [4]; 120 % of control (dose: 150.0 mg/kg/injection, schedule: Q04DX003 (ip), vehicle: Klucel (hydroxypropylcellulose) (HPC)); 95 % of control under setting [5].
As for `COc1ccc2nc3cc(Cl)ccc3c(NCCO)c2c1`, the T/C (dose: 37.5 mg/kg/injection, schedule: Q01DX010 (ip), vehicle: saline) was 100 % of control; the T/C (dose: 75.0 mg/kg/injection, schedule: Q01DX010 (ip), vehicle: saline) is 100 % of control; the T/C (dose: 150.0 mg/kg/injection, schedule: Q01DX010 (ip), vehicle: saline) was 100 % of control.
On to `N=C1CCCC1C(=S)SC(CC(N)=O)C(=O)O` (stereo not given), for which the T/C is, setting by setting: under setting [14], 108 % of control; under setting [6], 112 % of control; under setting [8], 112 % of control.
In the case of `Oc1c(Cl)cc(Cl)cc1C1Nc2ccccc2-n2cccc21` (stereo not given), under setting [8], the T/C was 88 % of control.
Consider `O=C(Cn1ccc(=O)[nH]c1=O)N1CCOCC1`, for which the T/C reads like this: under setting [11], 104 % of control; under setting [12], 104 % of control; under setting [13], 95 % of control.
In the case of `OC1CCCC2CCC[N-]C12.OC1CCCC2CCC[N-]C12.[Mn+2]` (stereo not given), the T/C (dose: 6.25 mg/kg/injection, schedule: Q01DX009 (ip), vehicle: DMSO) was 107 % of control; the T/C (dose: 12.5 mg/kg/injection, schedule: Q01DX009 (ip), vehicle: DMSO) is 110 % of control; the T/C (dose: 25.0 mg/kg/injection, schedule: Q01DX009 (ip), vehicle: DMSO) was 108 % of control; the T/C (dose: 50.0 mg/kg/injection, schedule: Q01DX009 (ip), vehicle: DMSO) is 123 % of control; the T/C (dose: 100.0 mg/kg/injection, schedule: Q01DX009 (ip), vehicle: DMSO) was 100 % of control.
`N#Cc1c2c(c(O)[nH]c1=O)CCCC2`: the T/C runs as follows: under setting [6], 120 % of control; under setting [8], 105 % of control; under setting [10], 120 % of control.
As to `CN(C)CCC(=O)c1ccccc1`, the T/C (dose: 25.0 mg/kg/injection, schedule: Q01DX009 (ip), vehicle: saline) is 100 % of control.
As for `Sc1ccccc1-n1c(-c2ccccc2)ccc1-c1ccccc1`, the T/C was 101 % of control under setting [14], 88 % of control under setting [6], 87 % of control under setting [8] and 102 % of control under setting [10].
In the case of `O=C=Nc1ccc(Cl)c(Cl)c1` (tested in a mixture with another compound), the T/C by setting is: (dose: 50.0 mg/kg/injection, schedule: Q01DX011 (ip), vehicle: Klucel (hydroxypropylcellulose) (HPC)) 107 % of control; (dose: 100.0 mg/kg/injection, schedule: Q01DX011 (ip), vehicle: Klucel (hydroxypropylcellulose) (HPC)) 109 % of control; (dose: 200.0 mg/kg/injection, schedule: Q01DX011 (ip), vehicle: Klucel (hydroxypropylcellulose) (HPC)) 100 % of control; (dose: 400.0 mg/kg/injection, schedule: Q01DX011 (ip), vehicle: Klucel (hydroxypropylcellulose) (HPC)) 102 % of control.
In the case of `CCOC(=O)c1ccc(N(CCOS(C)(=O)=O)CCOS(C)(=O)=O)cc1`, the T/C is, setting by setting: (dose: 66.0 mg/kg/injection, schedule: Q01DX008 (ip), vehicle: saline with Tween-80) 200 % of control; (dose: 100.0 mg/kg/injection, schedule: Q01DX008 (ip), vehicle: saline with Tween-80) 222 % of control; (dose: 132.0 mg/kg/injection, schedule: Q04DX003 (ip), vehicle: saline with Tween-80) 177 % of control; (dose: 150.0 mg/kg/injection, schedule: Q01DX008 (ip), vehicle: saline with Tween-80) 272 % of control; under setting [9], 190 % of control; (dose: 300.0 mg/kg/injection, schedule: Q04DX003 (ip), vehicle: saline with Tween-80) 195 % of control.

Values taken from PubChem BioAssay AID328 (DTP/NCI, 2004).
